Experimental data taken from EP4793271A1, “NEUROPROTECTIVE AGENT” (National Center of Neurology and Psychiatry, priority 2023, dated 2025).

Assays:
hSARM1 = molecular target: T1, hSARM1 (Homo sapiens, UniProt Q6SZW1); experiment: Human SARM1 activity measurement in HEK293 cells transiently transfected with ΔN-hSARM1 (PC6 fluorescent probe); assay type: cell-based; design: expressed in transfected cells; host or cells: HEK293, pcDNA3 expression vector; settings: inhibition rate; compound 30 µM; PC6 50 µM; HEK293 cells expressing ΔN-hSARM1; approximately 48 hours from transfection; read-out: Evaluation on hSARM1 inhibitory
T1 sequence (Q6SZW1 28-724): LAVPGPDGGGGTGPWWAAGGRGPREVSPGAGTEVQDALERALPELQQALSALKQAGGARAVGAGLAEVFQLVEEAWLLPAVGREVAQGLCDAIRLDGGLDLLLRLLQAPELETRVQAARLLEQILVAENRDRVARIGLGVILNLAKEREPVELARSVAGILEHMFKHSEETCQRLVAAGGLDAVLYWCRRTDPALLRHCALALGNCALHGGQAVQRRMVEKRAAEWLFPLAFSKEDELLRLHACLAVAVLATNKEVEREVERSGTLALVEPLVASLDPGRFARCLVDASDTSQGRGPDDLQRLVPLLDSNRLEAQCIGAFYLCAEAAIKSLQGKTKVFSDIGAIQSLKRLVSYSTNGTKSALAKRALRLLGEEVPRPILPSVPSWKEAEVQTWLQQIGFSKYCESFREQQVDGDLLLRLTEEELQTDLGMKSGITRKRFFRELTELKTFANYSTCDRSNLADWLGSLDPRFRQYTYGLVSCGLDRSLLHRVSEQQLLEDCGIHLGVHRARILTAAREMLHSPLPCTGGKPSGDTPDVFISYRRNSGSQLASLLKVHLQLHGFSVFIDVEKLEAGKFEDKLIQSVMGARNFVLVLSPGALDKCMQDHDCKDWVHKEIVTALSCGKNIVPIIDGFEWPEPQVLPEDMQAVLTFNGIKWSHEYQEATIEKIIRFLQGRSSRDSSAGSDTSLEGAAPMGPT
Experimental: HEK293 cells cultured in a prepared medium of nicotinamide-free DMEM (Dulbecco's modified Eagle medium) supplemented with 10% FBS (BioSera), a 1% penicillin-streptomycin solution (FUJIFILM Wako Pure Chemical Corp.), 5 μM nicotinamide were inoculated at approximately 50,000 cells/well to a 96-well microplate, and the cells were cultured at 37°C under 5% CO2, transiently transfected on the next day with a pcDNA3 expression vector containing a DNA sequence (SEQ ID NO: 1) deficient in a mitochondrial targeting sequence encoded by an N-terminal 78-base sequence in cDNA encoding human sterile α- and armadillo-motif-containing protein (hSARM1) using PEI MAX(R) reagent (PolySciences Inc.), and forced to express ΔN-hSARM1 (SEQ ID NO: 2). Approximately 8 hours later, PC6, which reacts as a substrate of SARM1-specific base exchange reaction and functions as a fluorescent probe, was added thereto at a final concentration of 50 μM, and intracellular hSARM1 activity was measured (Li et al, eLife 2021 10: e67381). A compound for inhibitory activity evaluation was added at a final concentration of 30 μM at the same time with PC6, while dimethyl sulfoxide (Nacalai Tesque Inc.) was added to samples of a control group at the same time with PC6. The cells were incubated at 37°C under 5% CO2 for approximately 48 hours from transfection, followed by fluorescent signal measurement using SpectraMax M2 (Molecular Devices) (excitation: 405 nm, fluorescence: 525 nm, fluorescence cutoff: 515 nm). Results of this screening are reported as an inhibition rate (%) relative to a negative control defined as follows by using fluorescence intensity measured from a control group without transfection with ΔN-hSARM1 as a background whereas using fluorescence intensity measured from a control group transfected with ΔN-hSARM1 as the negative control. Inhibitory rate (%) = 100-(([…]-Background))/((Signalofthenegativecontrol-Background)) × 100 [formula] The nicotinamide-free medium was prepared so as to have the same composition as that of DMEM having known composition which is generally used in the art except for nicotinamide. […]

[1] = molecular target: T2, nicotinamide phosphoribosyl transferase (NAMPT) (Homo sapiens, UniProt P43490); experiment: NAMPT activity measurement (NMN fluorescence detection); assay type: biochemical; settings: NAMPT recombinant protein, 10 µM Nam; for IC50: read-out: Evaluation on NAMPT inhibitory
T2 construct: purchased Medical & Biological Laboratories Co., Ltd. (MBL)
T2 sequence (P43490 whole entry, species assumed): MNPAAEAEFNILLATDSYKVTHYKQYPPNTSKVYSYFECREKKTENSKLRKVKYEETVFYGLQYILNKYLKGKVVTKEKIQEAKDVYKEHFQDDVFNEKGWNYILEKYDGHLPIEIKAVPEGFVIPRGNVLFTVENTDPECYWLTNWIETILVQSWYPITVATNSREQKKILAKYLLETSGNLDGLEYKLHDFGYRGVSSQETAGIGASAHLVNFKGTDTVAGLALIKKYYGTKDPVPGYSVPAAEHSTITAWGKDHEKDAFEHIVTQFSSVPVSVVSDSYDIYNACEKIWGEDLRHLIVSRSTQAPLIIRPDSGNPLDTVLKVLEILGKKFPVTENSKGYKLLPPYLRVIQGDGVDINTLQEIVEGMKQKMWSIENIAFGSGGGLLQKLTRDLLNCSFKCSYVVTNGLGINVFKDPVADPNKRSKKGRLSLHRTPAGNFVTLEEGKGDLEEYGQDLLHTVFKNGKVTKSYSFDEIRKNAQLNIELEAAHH
Experimental: The compound of the present invention was evaluated for the ability to influence the activity of nicotinamide phosphoribosyl transferase (NAMPT) which is an enzyme that metabolizes nicotinamide (Nam), not the target SARM1.
The enzymatic reaction of NAMPT was carried out by adding NAMPT recombinant protein (manufactured by Medical & Biological Laboratories Co., Ltd. (MBL)) to a reaction solution containing the substrate Nam, phosphoribosylpyrophosphate (PRPP), ATP, and the like (composition: […] (pH = 7.4), 2 µM ATP, 0.5 µM PRPP, 0.02% BSA, 2 µM DTT, 1.2 µM MgCl2, and 10 µM Nam). The amount of the reaction product NMN was detected by detecting the fluorescent signal of a fluorescent substance obtained through the reaction of 2-acetylbenzofuran with NMN using SpectraMax M2 (Molecular Devices) (excitation: 421 nm, fluorescence: 480 nm) (Moriya et al, Chemical Communications 2013, 49 11500). The test compound was added at final concentrations of 10 µM, 3 µM, 1 µM, 300 nM, 100 nM, 30 nM, 10 nM, and 3 nM to the NMN synthesis reaction system described above. The NMN-derived fluorescent signal was normalized against a control group and plotted as the function of the test compound concentrations, and the compound was evaluated for its NAMPT inhibitory effect by calculating IC50.
The IC50 value was evaluated as ∘ for ≥1 µM and as Δ for ≥0.1 µM.

[2] = tested on: primary cultured cells of mouse fetus-derived dorsal root ganglia (DRGs); experiment: Suppression of axonal degeneration after axotomy in DRG explant culture; assay type: cell-based; settings: Mus musculus; minimum concentration at which axonal degeneration was suppressed (DI 0.3 or less); 24 hours after axotomy; read-out: Evaluation on protection against degeneration
Experimental: The compound of the present invention was studied for its protective effect against axonal injury using primary cultured cells of mouse fetus-derived dorsal root ganglia (DRGs).
DRGs were collected from a fetus derived from an ICR mouse (13.5 days of pregnancy). DRGs were cultured using a plate coated by incubation with 0.1 mg/mL poly-L-lysine at 4°C for 24 hours or longer, washing with PBS, and then incubation with 2.5 µg/mL Cultrex Mouse Laminin I at 37°C for 4 to 6 hours.
One of DRGs collected was plated to each well of the coated 24-well plate. The DRG was cultured in a nicotinamide-free medium for neuron (supplemented with 10% FBS, 1 mM glutamine, 50 ng/mL NGF2.5S, and penicillin-streptomycin) for 24 hours at maximum from the start of culture and then cultured in a nicotinamide-free medium for neuron (supplemented with 2% MACS NeuroBrew-21, 50 ng/mL NGF2.5S, 1% Glutamax, 20 µM uridine, 20 µM 5-fluoro-2'-deoxyuridine, and penicillin-streptomycin) for 7 to 8 days.
The nicotinamide-free medium for neuron was prepared so as to have the same constituents as those of the composition published in a previously reported paper (Brewer et al., J. Neuroscience Research 35: 567-576) except for nicotinamide with reference to this composition.
The test compound is dissolved in DMSO and added to cells such that the final concentration of DMSO is 0.1% (1000-fold dilution). 10 mM, 1 mM, 100 µM, 10 µM, 1 µM, and 100 nM samples of the test compound are prepared and added at a 1000-fold dilution to cells.
Axotomy was carried out by scooping out a cell body portion of the cultured DRG with a chip for a micropipette. The test compound was added at the following concentrations (final concentration: 10 µM, 1 µM, 100 nM, 10 nM, 1 nM, and 100 pM) within 30 minutes after axotomy. The compound was evaluated for its protective effect against axonal degeneration by imaging (Leica DMIL microscope, 20× objective lens) the state of neurites 24 hours after axotomy and evaluating the degree of degeneration. The degree of degeneration was quantified using a program uniquely developed using the R language. A degeneration index (DI) was used as an indicator for the degree of degeneration, and the ratio of the area of a fragmented axon to the total area of axons was calculated as defined in the equation of Expression 2. Suppressed axonal degeneration was evaluated when the value of DI was 0.3 or less. The minimum concentration at which axonal degeneration was suppressed was determined for each compound. Degeneratioin index (DI) = (Degenerated axons)/(All axons) [formula]
The axonal protective activity was evaluated as A ≤ 0.01 µM, 0.01 µM < B ≤ 0.1 µM, and 0.1 µM < C ≤ 1 µM depending on the minimum concentration at which axonal degeneration was suppressed.

| inhibition at 30 µM (hSARM1) [%] | Evaluation on NAMPT inhibitory [1] | IC50 [1] [nM] | Compound | minimal effective concentration [2] [µM] |
| --- | --- | --- | --- | --- |
| > 75 | ○ |  | O=C(NCc1ccc(NC(=O)c2ccc(F)cc2)nc1)c1cccnc1 [Compound 117] | ≤ 0.01 |
| > 75 |  | ≥ 100 | O=C(Cc1ccc2ccccc2c1)Nc1ccc(CNC(=O)c2cccnc2)cn1 [Compound 123] | ≤ 0.01 |
| > 75 | ○ |  | O=C(NCc1ccc(NC(=O)c2cccc(F)c2)nc1)c1cccnc1 [Compound 116] | ≤ 0.01 |
| > 75 |  | ≥ 100 | C=Cc1ccc(C(=O)Nc2ccc(CNC(=O)c3cccnc3)cn2)cc1 [compound 80] | ≤ 0.01 |
| > 75 |  | ≥ 100 | O=C(COc1ccc(C(F)(F)F)cc1)Nc1ccc(CNC(=O)c2cccnc2)cn1 [Compound 176] | 0.01 to 0.1 |
|  | ○ |  | O=C(NCCCCC(NC(=O)c1cccnc1)C(=O)O)c1cccnc1 (stereo not shown) [compound 45] |  |
| > 50 | ○ |  | COCOc1cccc(OCCOCCNC(=O)c2cccnc2)c1 [compound 30] | 0.01 to 0.1 |
| > 75 |  | ≥ 100 | COc1cccc(OCCNC(=O)/C=C/c2cccnc2)c1 [compound 19] | ≤ 0.01 |
|  | ○ |  | COC(=O)C(CCCNC(=O)c1cccnc1)NC(=O)c1cccnc1 (stereo not shown) [compound 48] | 0.1 to 1 |
|  | ○ |  | CN(CCCCCCN(C)C(=O)c1cccnc1)C(=O)c1cccnc1 [compound 102] | ≤ 0.01 |
| > 10 | ○ |  | O=C(NCc1cccc(CN2Cc3ccccc3C2=O)n1)c1cccnc1 [compound 92] |  |
|  | ○ |  | NCCOCCOCCNC(=O)c1cccnc1 [compound 107] | ≤ 0.01 |
|  | ○ |  | NCc1cccc(CNC(=O)c2cccnc2)n1 [Compound 148] | 0.1 to 1 |
| > 10 | ○ |  | O=C(/C=C/c1cccnc1)NCc1ccccc1NC(=O)/C=C/c1cccnc1 [compound 60] |  |
|  | ○ |  | CCNC(=O)C(CCCNC(=O)c1cccnc1)NC(=O)c1cccnc1 (stereo not shown) [compound 51] |  |
|  |  | ≥ 100 | O=C(NCCCCCCCCOCCOc1ccc([N+](=O)[O-])c2nonc12)c1cccnc1 [compound 5] | ≤ 0.01 |
|  | ○ |  | COC(=O)C(CCCCNC(=O)c1cccnc1)NC(=O)c1cccnc1 (stereo not shown) [compound 44] |  |
|  |  | ≥ 100 | CN(C)c1ccc(/C=C/C(=O)Nc2ccc(CNC(=O)c3cccnc3)cn2)cc1 [Compound 181] | ≤ 0.01 |
| > 10 | ○ |  | O=C(NCCN(CCNC(=O)c1cccnc1)C(=O)c1cccnc1)c1cccnc1 [compound 36] |  |
|  | ○ |  | NC(=O)C(CCCNC(=O)c1cccnc1)NC(=O)c1cccnc1 (stereo not shown) [compound 50] |  |
|  | ○ |  | O=C(Nc1ccccc1CCc1ccccc1NC(=O)c1cccnc1)c1cccnc1 [compound 100] | 0.01 to 0.1 |
|  |  | ≥ 100 | O=C(NCCCCCC1CCN(CCO)CC1)c1cccnc1 [compound 2] | ≤ 0.01 |
| > 25 | ○ |  | O=C(NCc1cccc(CNC(=O)c2cc(F)cc(F)c2)n1)c1cccnc1 [Compound 152] |  |
|  | ○ |  | NC(=O)C(CCCCNC(=O)c1cccnc1)NC(=O)c1cccnc1 (stereo not shown) [compound 46] |  |
| > 10 | ○ |  | O=C(NCc1ccc(NS(=O)(=O)c2ccccc2)nc1)c1cccnc1 [compound 79] |  |
|  | ○ |  | O=C(NCCCC(NC(=O)c1cccnc1)C(=O)O)c1cccnc1 (stereo not shown) [compound 49] |  |
|  | ○ |  | CCNC(=O)C(CCCCNC(=O)c1cccnc1)NC(=O)c1cccnc1 (stereo not shown) [compound 47] |  |
| > 10 | ○ |  | [N-]=[N+]=NCc1cccc(CNC(=O)c2cccnc2)n1 [compound 90] |  |

| Compound | inhibition at 30 µM (hSARM1) [%] | Evaluation on NAMPT inhibitory [1] | IC50 [1] [nM] | minimal effective concentration [2] [µM] |
| --- | --- | --- | --- | --- |
| O=C(NCc1ccc(NC(=O)c2cccc3ccccc23)nc1)c1cccnc1 [Compound 121] |  |  | ≥ 100 | 0.01 to 0.1 |
